From patent US8192962B2, “Processes for detecting toxic substances” (Daikin Industries, Ltd., priority 2001, dated 2012)

Test system: Genes belonging to other category
Test: DNA chip mRNA expression in yeast, genes belonging to other category (Table 9)
Format: cell-based, Saccharomyces cerevisiae S288C
Description: Yeast (Saccharomyces cerevisiae S288C (α SUC2mal mel gap2 CUP1)) were incubated at 25° C. on YPD medium (yeast extract 1%, polypepton 2%, glucose 2%). One of toxic chemical substances was added to the cells at logarithmic growth phase, and the cells were further incubated for two hours. Cells were cultured without any chemical substance in the same condition, and were used as control. Concentrations of the chemical substances were defined to inhibit the growth of the yeast but not lead to death.
After completion of the incubation, the culture was centrifuged to collect the cells. To the cells, sodium acetate buffer (50 mM sodium acetate, 10 mM EDTA, 1% SDS) was added, and the mixture was shaken at 65° C. for five minutes, followed by returning to room temperature, and obtaining the supernatant, of which the procedures were repeated two times. To the supernatant, ½ amount of a solution of phenol/chloroform was added, and the mixture was centrifuged to give a supernatant, which was added with an equal amount of chloroform, and the mixture was centrifuged to give a supernatant. To the supernatant, an equal amount of isopropanol containing 0.3 M sodium acetate was added, and the mixture was allowed to stand at room temperature for 30 minutes, after which the mixture was centrifuged to give a sediment of the whole RNAs. Seventy % ethanol was added to the sediment, and the mixture was again centrifuged to give a sediment, which was then dried and dissolved in water. mRNA was isolated from the whole RNAs as followings. In view of the fact that a poly A chain is attached to the 3′ terminus of mRNA, a polynucleotide having a poly T structure which was immobilized on the surface of latex beads was used to trap the mRNA, and then the mRNA was washed and eluted with spine column (Oligotex-dT30<Super>mRNA Purification Kit, Takara). Reverse transcription of the mRNA was conducted with a reverse transcriptase (Super Script II Reverse Transcriptase; catalogue No. 18064-014, GibcoBRL) using fluorescence-labeled nucleotides to give cDNAs that were introduced with Cy3-dUTP or Cy5-dUTP during the reverse transcription.
The labeled cDNAs were dissolved in TE buffer (10mM Tris-HCl/1 mM EDTA, pH8.0), and the solution was dropped on the DNA chip containing the whole genes of yeast (DNA Chip Research Inc. Japan) so that the cDNAs were hybridized on the DNA chip at 65° C. for over 12 hours. The fluoresces intensity of the DNA chip was read with a scanner, and the ratio relative to the fluorescence intensity resulting from the absence of chemical substance was estimated as the following, which is shown in Tables 1 to 9: […]

CN(C)C(=S)SSC(=S)N(C)C [(10), Tetramethylthiuram disulfide]
The level of expressed mRNA in the presence of chemical substance/The level of expressed mRNA in the absence of chemical substance (yeast gene YAR009C): 1.4
The level of expressed mRNA in the presence of chemical substance/The level of expressed mRNA in the absence of chemical substance (yeast gene YAR010C): 1.1
The level of expressed mRNA in the presence of chemical substance/The level of expressed mRNA in the absence of chemical substance (yeast gene YBL005W-A): 1.5
The level of expressed mRNA in the presence of chemical substance/The level of expressed mRNA in the absence of chemical substance (yeast gene YBL041W): 2.6
The level of expressed mRNA in the presence of chemical substance/The level of expressed mRNA in the absence of chemical substance (yeast gene YBL043W): 14.7
The level of expressed mRNA in the presence of chemical substance/The level of expressed mRNA in the absence of chemical substance (yeast gene YBL078C): 15.2
The level of expressed mRNA in the presence of chemical substance/The level of expressed mRNA in the absence of chemical substance (yeast gene YBL101C): 1.4
The level of expressed mRNA in the presence of chemical substance/The level of expressed mRNA in the absence of chemical substance (yeast gene YBR010W): 0.7
The level of expressed mRNA in the presence of chemical substance/The level of expressed mRNA in the absence of chemical substance (yeast gene YBR031W): 1.0
The level of expressed mRNA in the presence of chemical substance/The level of expressed mRNA in the absence of chemical substance (yeast gene YBR170C): 4.2
The level of expressed mRNA in the presence of chemical substance/The level of expressed mRNA in the absence of chemical substance (yeast gene YBR201W): 1.0
The level of expressed mRNA in the presence of chemical substance/The level of expressed mRNA in the absence of chemical substance (yeast gene YBR214W): 3.5
The level of expressed mRNA in the presence of chemical substance/The level of expressed mRNA in the absence of chemical substance (yeast gene YBR239C): 1.2
The level of expressed mRNA in the presence of chemical substance/The level of expressed mRNA in the absence of chemical substance (yeast gene YBR286W): 1.6
The level of expressed mRNA in the presence of chemical substance/The level of expressed mRNA in the absence of chemical substance (yeast gene YBR290W): 1.8
The level of expressed mRNA in the presence of chemical substance/The level of expressed mRNA in the absence of chemical substance (yeast gene YCL020W): 2.4
The level of expressed mRNA in the presence of chemical substance/The level of expressed mRNA in the absence of chemical substance (yeast gene YCL027W): 16.3
The level of expressed mRNA in the presence of chemical substance/The level of expressed mRNA in the absence of chemical substance (yeast gene YCL033C): 1.4
The level of expressed mRNA in the presence of chemical substance/The level of expressed mRNA in the absence of chemical substance (yeast gene YCR004C): 2.1
The level of expressed mRNA in the presence of chemical substance/The level of expressed mRNA in the absence of chemical substance (yeast gene YCR062W): 1.3
The level of expressed mRNA in the presence of chemical substance/The level of expressed mRNA in the absence of chemical substance (yeast gene YCR071C): 1.2
The level of expressed mRNA in the presence of chemical substance/The level of expressed mRNA in the absence of chemical substance (yeast gene YCR088W): 0.9
The level of expressed mRNA in the presence of chemical substance/The level of expressed mRNA in the absence of chemical substance (yeast gene YCR091W): 1.2
The level of expressed mRNA in the presence of chemical substance/The level of expressed mRNA in the absence of chemical substance (yeast gene YDL008W): 3.0
The level of expressed mRNA in the presence of chemical substance/The level of expressed mRNA in the absence of chemical substance (yeast gene YDL097C): 2.3
The level of expressed mRNA in the presence of chemical substance/The level of expressed mRNA in the absence of chemical substance (yeast gene YDL238C): 2.7
The level of expressed mRNA in the presence of chemical substance/The level of expressed mRNA in the absence of chemical substance (yeast gene YDR055W): 2.4
The level of expressed mRNA in the presence of chemical substance/The level of expressed mRNA in the absence of chemical substance (yeast gene YDR080W): 2.6
The level of expressed mRNA in the presence of chemical substance/The level of expressed mRNA in the absence of chemical substance (yeast gene YDR084C): 0.6
The level of expressed mRNA in the presence of chemical substance/The level of expressed mRNA in the absence of chemical substance (yeast gene YDR085C): 2.3
The level of expressed mRNA in the presence of chemical substance/The level of expressed mRNA in the absence of chemical substance (yeast gene YDR104C): 2.7
The level of expressed mRNA in the presence of chemical substance/The level of expressed mRNA in the absence of chemical substance (yeast gene YDR115W): 1.0
The level of expressed mRNA in the presence of chemical substance/The level of expressed mRNA in the absence of chemical substance (yeast gene YDR169C): 1.4
The level of expressed mRNA in the presence of chemical substance/The level of expressed mRNA in the absence of chemical substance (yeast gene YDR188W): 1.6
The level of expressed mRNA in the presence of chemical substance/The level of expressed mRNA in the absence of chemical substance (yeast gene YDR259C): 1.8
The level of expressed mRNA in the presence of chemical substance/The level of expressed mRNA in the absence of chemical substance (yeast gene YDR264C): 3.4
The level of expressed mRNA in the presence of chemical substance/The level of expressed mRNA in the absence of chemical substance (yeast gene YDR276C): 2.7
The level of expressed mRNA in the presence of chemical substance/The level of expressed mRNA in the absence of chemical substance (yeast gene YDR315C): 1.6
The level of expressed mRNA in the presence of chemical substance/The level of expressed mRNA in the absence of chemical substance (yeast gene YDR329C): 1.0
The level of expressed mRNA in the presence of chemical substance/The level of expressed mRNA in the absence of chemical substance (yeast gene YDR358W): 3.2
The level of expressed mRNA in the presence of chemical substance/The level of expressed mRNA in the absence of chemical substance (yeast gene YDR378C): 1.3
The level of expressed mRNA in the presence of chemical substance/The level of expressed mRNA in the absence of chemical substance (yeast gene YDR388W): 0.9
The level of expressed mRNA in the presence of chemical substance/The level of expressed mRNA in the absence of chemical substance (yeast gene YDR427W): 2.0
The level of expressed mRNA in the presence of chemical substance/The level of expressed mRNA in the absence of chemical substance (yeast gene YDR432W): 0.8
The level of expressed mRNA in the presence of chemical substance/The level of expressed mRNA in the absence of chemical substance (yeast gene YDR481C): 1.6
